Results on 20 compounds are retold here after patent US20250230226A1, “PLXDC1/PLXDC2 ACTIVATORS AND THEIR USE IN THE TREATMENT OF BLOOD VESSEL DISORDERS” (THE REGENTS OF THE UNIVERSITY OF CALIFORNIA, priority 2019, published 2025).

For assay [1], the system named is LL/2 lung cancer tumor endothelial cells. Description: Lung LL2 ex vivo model of tumor angiogenesis. The format is cell-based, mouse. The settings on record: for 48 hrs (morphology observations): LL/2 tumor endothelial cells; for cytotoxicity at 20 µM / cytotoxicity at 40 µM: Mus musculus, Endothelial cell, 48 h, read-out: Cell death; for Cell death: drug treatment for two days, ratio of red area to total endothelial cell area. A digest of the protocol: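 LL2 mouse tumor fragments (~0.075 mm³) embedded in Matrigel and cultured in endothelial growth medium at 37 °C until endothelial outgrowth (~4 days) before treatment. Cell death assessed e.g. 48 h after drug by fluorescein diacetate (live)/propidium iodide (dead) staining and red/green fluorescence imaging.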

Assay [2] concerns CT26.CL25 colon cancer tumor endothelial cells. Description: Colon CT26 ex vivo model of tumor angiogenesis. The conditions noted are these: for cytotoxicity at 10 µM / cytotoxicity at 40 µM / cytotoxicity at 20 µM: Mus musculus, Endothelial cell, 48 h, read-out: Cell death. Type of assay: cell-based, mouse. The method, then:
An ex vivo tumor angiogenesis model was developed to test the efficacy of anti-cancer candidate agents. The following protocol describes the Ex Vivo Tumor Angiogenesis Model.
• 1. The day before the experiment, all necessary tools were sprayed with 70% ethanol and sterilized under UV light overnight, including blade, dissecting and micro-dissecting scissors and […]. 24-well dishes were placed at 4° C. to pre-chill plates and Matrigel was thawed, 24 hours before tumor dissection. • 2. 70% ethanol was sprayed on working bench. Two sterile petri dishes were prepared with 10 ml sterile PBS. The following steps 3 and 4 are necessary for mouse tumor models. For fresh human tumor, steps 3 and 4 are skipped. • 3. The tumor-bearing mice were euthanized. 70% ethanol was sprayed on the mouse and the tumor was removed using sterilized dissecting tools (avoid the fur). The tumor was rinsed in petri dish with sterile PBS to remove ethanol and fur. The tumor was transferred to a new petri dish with PBS for dissection. The dish is placed on ice. • 4. Pre-chilled sterile pipet tips were used to seed regular Matrigel in 24 well plates on ice. Matrigel (30 μl) was dropped in the middle of each well without touching the edge of the well (avoid introducing bubbles if possible). • 5. The tumor was cut in halves using the sterile blade. Healthy tumor tissue that is not necrotic and is within the tumor capsule was identified and isolated. The healthy tumor tissue was cut into small pieces. For instance, a suitable size for the tumor tissue is 0.5 mm (H)×0.5 mm (L)×0.3 mm (D) with a total volume of 0.075 mm^3. • 6. Each tumor piece was gently transferred and embedded in the Matrigel drop in the 24-well plate. The embedded piece was placed in the bottom and middle of each Matrigel drop. The plate was kept on ice all the time. • 7. After seeding the tumor pieces, plates were incubated in a 37° C. cell culture incubator without medium for 10 minutes in order for the Matrigel to solidify. • 8. Endothelial Growth Medium (0.5 ml) was added to each well and incubated at 37° C. with 5% CO2. Treatment was not added until the new endothelial cells was grown out of the tumor or were larger than 3 mm in diameter. This usually takes 4 days for the LL2 Lewis lung cancer model and 7 days for the CT26 colon cancer model. For human tumor models, the growth time is typically 2-3 weeks, depending on the tumor type. Media was changed every 4 days during prolonged culture. Typically, when the tumor tissue grows to 2 mm in diameter, it was good for drug testing. A size of about 3 mm in diameter can make visualization easier. • 9. When the assay was ready to be analyzed for cell death (e.g., 48 hours after drug addition), the dye mixture was prepared by mixing 6 μl of green dye to stain live cells (5 mg/ml Fluorescein diacetate or FDA in DMSO) with 30 μl of red dye (2.5 mg/ml Propidium iodide or PI in PBS) to stain dead cells in an Eppendorf tube. The FDA dye needs to be stored frozen in a −20° C. freezer because it has a labile ester bond. • 10. 1 μl of the dye mixture was added to each well of the 24-well dish. It is usually preferred to do one 24-well dish at a time given the amount of time needed to take pictures (the green dye is not as stable in the cells in the long term). • 11. The dish was gently rocked a few times to mix the dye with the media in the wells and incubate the dish at 37° C. for 10 min (too long incubation can make the green signal too intense). • 12. Each well was washed with 0.5 ml of sterile PBS and then 0.5 ml of phenol red free SFM was added to each well. Alternatively 0.5 ml of regular Endothelial Cell Growth Media can be added to each well if this well needs to be continuously maintained after the experiment. • 13. An inverted microscope using the 2× objective lens was used to observe morphological changes in the experimental wells. • 14. […]

Regarding `CCCCCCCOc1ccc(S(=O)(=O)c2cnc3ccc([S+](C)[O-])cc3c2N2CCC(N3CCN(CCO)CC3)CC2)cc1` (centres unmarked) [Compound 257], the “48 hrs (morphology observations)” value in assay [1] (20 μm) is “**** (100% of endothelial cells vesicularize in cell shape and look flattened in morphology (indicating disintegration of the cell body))”. In assay [1], the cytotoxicity at 20 µM was 100%. For the same compound, the “48 hrs (morphology observations after 48 hours)” value in assay [2] (Conc. 10 μm) was “**** (100% of endothelial cells vesicularize in cell shape and look flattened in morphology (indicating disintegration of the cell body))”. Further, the cytotoxicity at 10 µM in assay [2] is 100%.
Regarding `CCCCCCCOc1ccc(S(=O)(=O)c2cnc3ccc([S+](C)[O-])cc3c2N2CCC(N3CCCN(C)CC3)CC2)cc1` (centres unmarked) [Compound 256], in assay [1] (20 μm), the “48 hrs (morphology observations)” value was “**** (100% of endothelial cells vesicularize in cell shape and look flattened in morphology (indicating disintegration of the cell body))”; the Cell death is reported as 100%. Also, the “48 hrs (morphology observations after 48 hours)” value in assay [2] (Conc. 10 μm) is “*** (100% of endothelial cells vesicularize in cell shape)”. Besides, the cytotoxicity at 10 µM in assay [2] stood at 90%.
For `CCc1ccc(S(=O)(=O)c2cnc3ccc(C(=O)O)cc3c2N2CCCN(C)CC2)cc1` [Compound 66], in assay [1] (40 μm), the Cell death was 10%. In addition, the “48 hrs (morphology observations after 48 hours)” value in assay [2] (Conc. 40 μm) is recorded as 0. For the same compound, in assay [2], the cytotoxicity at 40 µM turned out to be 0%.
Take `O=S(=O)(c1ccc(OC(F)(F)F)cc1)c1cnc2ccc(OC(F)(F)F)cc2c1-n1cncn1` [Compound 91]: the “48 hrs (morphology observations)” value in assay [1] (20 μm) is given as “*** (more than 50% but less than 100% of endothelial cells vesicularize in cell shape)”. Also, in assay [1], the cytotoxicity at 20 µM worked out at 80%. Besides, the “48 hrs (morphology observations after 48 hours)” value in assay [2] (Conc. 10 μm) is “*** (100% of endothelial cells vesicularize in cell shape)”. Moreover, the cytotoxicity at 10 µM in assay [2] is 100%.
As to `CCCCOc1ccc(S(=O)(=O)c2cnc3ccc(OC(F)(F)F)cc3c2N2CCC(N3CCCCC3)CC2)cc1` [Compound 119], in assay [1] (20 μm), the “48 hrs (morphology observations)” value was “*** (more than 50% but less than 100% of endothelial cells vesicularize in cell shape)” and the Cell death turned out to be 100%. Moreover, in assay [2] (Conc. 20 μm), the “48 hrs (morphology observations after 48 hours)” value amounted to 0. The cytotoxicity at 20 µM in assay [2] is 50%.
With `CCCN(CCC)c1c(S(=O)(=O)c2ccc(OC)c(OC)c2)cnc2ccc(OC(F)(F)F)cc12` [Compound 71], in assay [1] (40 μm), the “48 hrs (morphology observations)” value is listed as “* (50% or less of cells vesicularize in cell shape)” and the Cell death is 10%. In assay [2] (Conc. 40 μm), the “48 hrs (morphology observations after 48 hours)” value stood at 0. In addition, the cytotoxicity at 40 µM in assay [2] worked out at 0%.
In the case of `COc1ccc(S(=O)(=O)c2cnc3ccc(OC(F)(F)F)cc3c2N2CCC(O)CC2)cc1` [Compound 44], the Cell death in assay [1] (40 μm) turned out to be 50%. Moreover, the “48 hrs (morphology observations after 48 hours)” value in assay [2] (Conc. 40 μm) is 0. In addition, the cytotoxicity at 40 µM in assay [2] was 0%.
Turning to `CCCCOc1ccc2ncc(S(=O)(=O)c3ccc(OC)c(OC)c3)c(N3CCC(N4CCCCC4)CC3)c2c1` [Compound 116], in assay [1] (20 μm), the “48 hrs (morphology observations)” value is listed as “*** (more than 50% but less than 100% of endothelial cells vesicularize in cell shape)” and the Cell death worked out at 100%. Besides, the “48 hrs (morphology observations after 48 hours)” value in assay [2] (Conc. 20 μm) is “* (50% or less of cells vesicularize in cell shape)”. Further, the cytotoxicity at 20 µM in assay [2] was 50%.
For `CCCCCCCOc1ccc(S(=O)(=O)c2cnc3ccc([S+](C)[O-])cc3c2N2CCCN(CCN3CCCCC3)CC2)cc1` (centres unmarked) [Compound 255], in assay [1] (20 μm), the “48 hrs (morphology observations)” value is “* (50% or less of cells vesicularize in cell shape)” and the Cell death amounted to 10%. The “48 hrs (morphology observations after 48 hours)” value in assay [2] (Conc. 10 μm) was determined as 0. Further, in assay [2], the cytotoxicity at 10 µM was 0%.
`CCc1ccc(S(=O)(=O)c2cnc3ccc(OC(F)(F)F)cc3c2N2CCN(c3ccc(C#N)cc3)CC2)cc1` [Compound 45]: the cytotoxicity at 40 µM in assay [1] is 10%; in assay [2], 0%. Moreover, the “48 hrs (morphology observations after 48 hours)” value in assay [2] (Conc. 40 μm) amounted to 0.
Take `CCCCN(CCCC)c1c(S(=O)(=O)c2ccc(CC)cc2)cnc2ccc(OC(F)(F)F)cc12` [Compound 87]: the cytotoxicity at 40 µM in assay [1] and in assay [2] was 0% in each case. Moreover, the “48 hrs (morphology observations after 48 hours)” value in assay [2] (Conc. 40 μm) is on record as 0.
With `CCCCN(CCCC)c1c(S(=O)(=O)c2ccc(OC)c(OC)c2)cnc2ccc(OC(F)(F)F)cc12` [Compound 74], in assay [1] (40 μm), the “48 hrs (morphology observations)” value is listed as “*** (more than 50% but less than 100% of endothelial cells vesicularize in cell shape)” and the Cell death came to 60%. In addition, the “48 hrs (morphology observations after 48 hours)” value in assay [2] (Conc. 40 μm) is reported as “*** (100% of endothelial cells vesicularize in cell shape)”. In assay [2], the cytotoxicity at 40 µM was 100%.
With `CCCCOc1ccc(S(=O)(=O)c2cnc3ccc(C(=O)OCC)cc3c2N2CCSCC2)cc1` [Compound 191], the Cell death in assay [1] (40 μm) stood at 30%. Also, the “48 hrs (morphology observations after 48 hours)” value in assay [2] (Conc. 40 μm) is reported as 0. For the same compound, the cytotoxicity at 40 µM in assay [2] stood at 10%.
As to `CCc1ccc(S(=O)(=O)c2cnc3ccc(OC(F)(F)F)cc3c2N2CCCC(O)C2)cc1` (centres unmarked) [Compound 82], the Cell death in assay [1] (40 μm) was determined as 60%. Also, the “48 hrs (morphology observations after 48 hours)” value in assay [2] (Conc. 40 μm) came out at 0. In assay [2], the cytotoxicity at 40 µM turned out to be 10%.
Regarding `CCCCCCCOc1ccc(S(=O)(=O)c2cnc3ccc([S+](C)[O-])cc3c2N2CCC(N3CCCC(O)C3)CC2)cc1` (centres unmarked) [Compound 254], in assay [1] (20 μm), the “48 hrs (morphology observations)” value was “*** (more than 50% but less than 100% of endothelial cells vesicularize in cell shape)” and the Cell death worked out at 100%. For the same compound, in assay [2] (Conc. 10 μm), the “48 hrs (morphology observations after 48 hours)” value was “** (more than 50% but less than 100% of endothelial cells vesicularize in cell shape)”. The cytotoxicity at 10 µM in assay [2] stood at 40%.
In the case of `COc1ccc(S(=O)(=O)c2cnc3ccc(OC(F)(F)F)cc3c2N2CCC(O)CC2)cc1OC` [Compound 58], the “48 hrs (morphology observations)” value in assay [1] (40 μm) is 0. The cytotoxicity at 40 µM in assay [1] and in assay [2] was 50% throughout. In assay [2] (Conc. 40 μm), the “48 hrs (morphology observations after 48 hours)” value is recorded as “* (50% or less of cells vesicularize in cell shape)”.
`CCCCOc1ccc(S(=O)(=O)c2cnc3ccc([S+](C)[O-])cc3c2N2CCC(N3CCCC(O)C3)CC2)cc1` (centres unmarked) [Compound 208]: the Cell death in assay [1] (40 μm) was determined as 50%. The “48 hrs (morphology observations after 48 hours)” value in assay [2] (Conc. 40 μm) is 0. Further, the cytotoxicity at 40 µM in assay [2] was 20%.
Consider `CCc1ccc(S(=O)(=O)c2cnc3ccc(C(=O)O)cc3c2N2CCC(O)CC2)cc1` [Compound 65], for which, in assay [1] (40 μm), the Cell death was determined as 10%. Moreover, in assay [2] (Conc. 40 μm), the “48 hrs (morphology observations after 48 hours)” value worked out at 0. Further, in assay [2], the cytotoxicity at 40 µM was 0%.
Consider `CCc1ccc(S(=O)(=O)c2cnc3ccc(OC(F)(F)F)cc3c2N(CC)CC)cc1` [Compound 81], for which the cytotoxicity at 40 µM in assay [1] and in assay [2] was 0% throughout. In addition, in assay [2] (Conc. 40 μm), the “48 hrs (morphology observations after 48 hours)” value is 0.
Turning to `CCc1ccc(S(=O)(=O)c2cnc3ccc(OC(F)(F)F)cc3c2-n2nnc3ccccc32)cc1` [Compound 112], in assay [1] (20 μm), the “48 hrs (morphology observations)” value is reported as “*** (more than 50% but less than 100% of endothelial cells vesicularize in cell shape)” and the Cell death turned out to be 70%. Also, in assay [2] (Conc. 40 μm), the “48 hrs (morphology observations after 48 hours)” value was “** (more than 50% but less than 100% of endothelial cells vesicularize in cell shape)”. In addition, the cytotoxicity at 40 µM in assay [2] turned out to be 10%.
